Data reported in US9266904B2, “6-bridged heteroaryldihydropyrimidines for the treatment and prophylaxis of hepatitis B virus infection” (priority 2013, dated 2016).
Where two headings read alike, the source gives them in different places.

Legend:
[1] = tested on: HBV replication in HepG2.2.15 cells; test: Anti-HBV activity in vitro in HepG2.2.15 cells (extracellular HBV DNA by qPCR); format: cell-based; details: read-out: EC50
Method in brief: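 Constitutively HBV-producing HepG2.2.15 cells were seeded overnight at 37 °C, then treated with half-log serial dilutions of compound (0.5% DMSO final) for five days. Supernatant HBV DNA was extracted and quantified by qPCR; EC50 is the concentration inhibiting HBV replication by 50%.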

HepDE19 cells = test: Cytotoxicity (CCK-8 cell viability) and selectivity index; format: cell-based, human; details: for Selectivity index (CC50/EC50): CC50 value/EC50 value
Description: (§1) HepG2.2.15 and HepDE19 are stably-transfected cell lines containing the HBV genome. Both cell lines are derived from the hepatoblastoma cell line Hep G2 (American Type Culture Collection, ATCC® HB-8065™) by the published procedures described in references: M A Selles et al. Proc. Natl. Acad. Sci. USA 1987, 84, 1005-1009 and H Guo et al. Journal of Virology 2007, 81, 12472-12484, respectively. Both cell lines were maintained in Dulbecco's modified Eagle's medium (DMEM)-F12 medium supplemented with 10% fetal bovine serum, 100 U/mL penicillin, 100 μg/mL streptomycin, and 0.5 mg/mL of G418.
(§2) In a cell culture model, apparent antiviral activity of a compound can be the result of host cell death after exposure to the compound. To determine whether the anti-HBV effect of a test compound is due to cytotoxicity, HepDE19 cells were seeded into 96-well plates (5×10^3 cells per well) and treated with compounds as described above for EC50 determination. Five days after treatment, cell viability was measured by addition of 20 μL of CCK-8 reagent. Two hours after incubation at 37° C., the absorbance at wavelengths of 450 nm and 630 nm (OD450 and OD630) was recorded by a plate reader. The concentration results in the death of 50% of the host cells (CC50) of each compound was determined (See Table 5).

[2] = Human microsomal clearance assay; format: in vitro ADME; details: human microsomal clearance
Method in brief: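 Liver microsomes (0.5 mg/mL protein) were incubated with 1 μM compound at 37 °C, pH 7.4 phosphate, with an NADPH-regenerating system. Samples at 0-30 min were quenched and measured by LC-MS/MS for parent loss. No-NADPH controls were included.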

[3] = Lyophilisation solubility assay (Lysa); format: physicochemical; details: 0.05 M phosphate buffer (pH 6.5); reported as bigger than the value if more than 80% of the sample is in solution
Method in brief: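 DMSO was evaporated from 10 mM stocks, and residues were taken up in 0.05 M phosphate buffer pH 6.5, stirred 1 h, shaken 2 h and left overnight. Filtrates were quantified by UV or HPLC-UV against a four-point calibration, in duplicate. Values are in μg/ml, with a lower-bound value when >80% dissolved.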

[4] = Cytotoxicity (CCK-8 cell viability) and selectivity index; format: cell-based, human; details: human, HepDE19 cells; cytotoxicity, concentration resulting in death of 50% of host cells
Description: as §1, §2

[5] = Hepatitis B virus, HepG2.2.15, Anti-HBV activity in HepG2.2.15 cells

| Structure (SMILES) | EC50 ([1]; Anti-HBV activity in HepG2.2.15 cells) | CC50 (HepDE19 cells; cytotoxicity, concentration resulting in death of 50% of host cells) | CLh [2] | Lysa [3] | EC50 [1, 5] | CC50 at 5 days [4] | Selectivity index (CC50/EC50) (HepDE19 cells) |
| --- | --- | --- | --- | --- | --- | --- | --- |
| COC(=O)C1=C(CN2[C@H]3COC[C@@H]2C(F)(F)[C@H](CC(=O)O)C3)NC(c2nccs2)=N[C@H]1c1ccc(F)c(F)c1Cl (single isomer, unassigned) [Example 131, 2-[(1R,5R,7S)-9-[[(4R)-4-(2-chloro-3,4-difluoro-phenyl)-5-methoxycarbonyl-2-thiazol-2-yl-1,4-dihydropyrimidin-6-yl]methyl]-6,6-difluoro-3-oxa-9-azabicyclo[3.3.1]nonan-7-yl]acetic acid or 2-[(1S,5S,7R)-9-[[(4R)-4-(2-chloro-3,4-difluoro-phenyl)-5-methoxycarbonyl-2-thiazol-2-yl-1,4-dihydropyrimidin-6-yl]methyl]-6,6-difluoro-3-oxa-9-azabicyclo[3.3.1]nonan-7-yl]acetic acid] | 0.0057 µM | 53 µM | 0 L/h/kg | 261 µg/mL |  |  |  |
| COC(=O)C1=C(CN2C3COCC2CC(O)C3)NC(c2nccs2)=N[C@H]1c1ccc(F)cc1Cl (stereo partly drawn) [Example 7, (R)-4-(2-Chloro-4-fluoro-phenyl)-6-(7-hydroxy-3-oxa-9-aza-bicyclo[3.3.1]non-9-ylmethyl)-2-thiazol-2-yl-1,4-dihydro-pyrimidine-5-carboxylic acid methyl ester] |  |  |  |  | 0.012 µM | > 100 µM | >8333 |
| COC(=O)C1=C(CN2C3COCC2CN(CC(F)F)C3)NC(c2nccs2)=N[C@H]1c1ccc(F)cc1Cl [Example 14, (R)-4-(2-Chloro-4-fluoro-phenyl)-6-[7-(2,2-difluoro-ethyl)-3-oxa-7,9-diaza-bicyclo[3.3.1]non-9-ylmethyl]-2-thiazol-2-yl-1,4-dihydro-pyrimidine-5-carboxylic acid methyl ester] |  |  |  |  | 0.013 µM | > 100 µM | >7692 |
| COC(=O)C1=C(CN2C3COCC2CN(C(=O)OC)C3)NC(c2nccs2)=N[C@H]1c1ccc(F)cc1Cl [Example 17, 9-[(R)-6-(2-Chloro-4-fluoro-phenyl)-5-methoxycarbonyl-2-thiazol-2-yl-3,6-dihydro-pyrimidin-4-ylmethyl]-3-oxa-7,9-diaza-bicyclo[3.3.1]nonane-7-carboxylic acid methyl ester] |  |  |  |  | 0.004 µM | 50 µM | 11628 |
| COC(=O)CC1CC2COCC(C1)N2CC1=C(C(=O)OC)[C@H](c2ccc(F)cc2Cl)N=C(c2nccs2)N1 (stereo partly drawn) [Example 25, (R)-4-(2-Chloro-4-fluoro-phenyl)-6-(7-methoxycarbonylmethyl-3-oxa-9-aza-bicyclo[3.3.1]non-9-ylmethyl)-2-thiazol-2-yl-1,4-dihydro-pyrimidine-5-carboxylic acid methyl ester] |  |  |  |  | 0.0145 µM | > 100 µM | >6897 |
| COC(=O)C1=C(CN2[C@@H]3COC[C@H]2CC2(C3)N=N2)NC(c2nccs2)=N[C@H]1c1ccc(F)cc1Cl [Example 43, (R)-6-(7-Diazirine-3-oxa-9-aza-bicyclo[3.3.1]non-9-ylmethyl)-4-(2-chloro-4-fluoro-phenyl)-2-thiazol-2-yl-1,4-dihydro-pyrimidine-5-carboxylic acid methyl ester] |  |  |  |  | 0.003 µM | 43 µM | 14845 |
| COC(=O)C1=C(CN2C3COCC2c2[nH]ncc23)NC(c2nccs2)=N[C@H]1c1ccc(F)cc1Cl (stereo partly drawn) [Example 45, (R)-4-(2-Chloro-4-fluoro-phenyl)-6-(9-oxa-3,4,11-triaza-tricyclo[5.3.1.0*2,6*]undeca-2(6),4-dien-11-ylmethyl)-2-thiazol-2-yl-1,4-dihydro-pyrimidine-5-carboxylic acid methyl ester] |  |  |  |  | 0.0005 µM | 43 µM | 85280 |
| CCOC(=O)C1=C(CN2[C@@H]3COC[C@H]2C[C@@H](NC(C)=O)C3)NC(c2nccs2)=N[C@H]1c1ccc(F)cc1Br [Example 70, Ethyl (4R)-6-[[(1S,5R)-7-endo-acetamido-3-oxa-9-azabicyclo[3.3.1]nonan-9-yl]methyl]-4-(2-bromo-4-fluoro-phenyl)-2-thiazol-2-yl-1,4-dihydropyrimidine-5-carboxylate] |  |  |  |  | 0.0082 µM | 60 µM | 7268 |
| CCOC(=O)C1=C(CN2[C@@H]3COC[C@H]2C[C@H](NC(C)=O)C3)NC(c2nccs2)=N[C@H]1c1ccc(F)cc1Br [Example 71, Ethyl (4R)-6-[[(1S,5R)-7-exo-acetamido-3-oxa-9-azabicyclo[3.3.1]nonan-9-yl]methyl]-4-(2-bromo-4-fluoro-phenyl)-2-thiazol-2-yl-1,4-dihydropyrimidine-5-carboxylate] |  |  |  |  | 0.003 µM | 44 µM | 14690 |
| COC(=O)C1=C(CN2C3COCC2c2conc2C3)NC(c2nccs2)=N[C@H]1c1ccc(F)cc1Cl (stereo partly drawn) [Example 104, (4R)-4-(2-Chloro-4-fluoro-phenyl)-6-(4,10-dioxa-5,12-diaza-tricyclo[6.3.1.0*2,6*]dodeca-2,5-dien-12-ylmethyl)-2-thiazol-2-yl-1,4-dihydro-pyrimidine-5-carboxylic acid methyl ester] |  |  |  |  | 0.0048 µM | 44 µM | 9079 |
| COC(=O)C1=C(CN2C3COCC2c2cnoc2C3)NC(c2nccs2)=N[C@H]1c1ccc(F)cc1Cl (stereo partly drawn) [Example 105, (4R)-4-(2-Chloro-4-fluoro-phenyl)-6-(5,10-dioxa-4,12-diaza-tricyclo[6.3.1.0*2,6*]dodeca-2(6),3-dien-12-ylmethyl)-2-thiazol-2-yl-1,4-dihydro-pyrimidine-5-carboxylic acid methyl ester] |  |  |  |  | 0.0027 µM | 33 µM | 12041 |
| COC(=O)C1=C(CN2C3COCC2C(F)(F)c2[nH]ncc23)NC(c2nccs2)=N[C@H]1c1ccc(F)cc1Cl (stereo partly drawn) [Example 107, (R)-4-(2-Chloro-4-fluoro-phenyl)-6-(7,7-difluoro-10-oxa-4,5,12-triaza-tricyclo[6.3.1.0*2,6*]dodeca-2(6),3-dien-12-ylmethyl)-2-thiazol-2-yl-1,4-dihydro-pyrimidine-5-arboxylic acid methyl ester] |  |  |  |  | 0.0021 µM | 26 µM | 12495 |
| COC(=O)C1=C(CN2C3COCC2C(F)(F)C3)NC(c2nccs2)=N[C@H]1c1ccc(F)cc1Cl (stereo partly drawn) [Example 108, Methyl (4R)-4-(2-chloro-4-fluorophenyl)-6-[(6,6-difluoro-3-oxa-8-azabicyclo[3.2.1]octan-8-yl)methyl]-2-(1,3-thiazol-2-yl)-1,4-dihydropyrimidine-5-carboxylate] |  |  |  |  | 0.0074 µM | 74 µM | 9953 |
| CCOC(=O)C(O)C1(O)CC2COCC(C1)N2CC1=C(C(=O)OC)[C@H](c2ccc(F)cc2Cl)N=C(c2nccs2)N1 (stereo partly drawn) [Example 137, Methyl (4R)-4-(2-chloro-4-fluoro-phenyl)-6-[[7-(2-ethoxy-1-hydroxy-2-oxo-ethyl)-7-hydroxy-3-oxa-9-azabicyclo[3.3.1]nonan-9-yl]methyl]-2-thiazol-2-yl-1,4-dihydropyrimidine-5-carboxylate] |  |  |  |  | 0.0032 µM | 55 µM | 17031 |
| CCOC(=O)CC1(NS(C)(=O)=O)CC2COCC(C1)N2CC1=C(C(=O)OC)[C@H](c2ccc(F)cc2Cl)N=C(c2nccs2)N1 (stereo partly drawn) [Example 146, Methyl (4R)-4-(2-chloro-4-fluoro-phenyl)-6-[[7-(2-ethoxy-2-oxo-ethyl)-7-(methanesulfonamido)-3-oxa-9-azabicyclo[3.3.1]nonan-9-yl]methyl]-2-thiazol-2-yl-1,4-dihydropyrimidine-5-carboxylate] |  |  |  |  | 0.0005 µM | > 100 µM | >200000 |
